# According to ChEMBL document CHEMBL1201862, “PubChem BioAssay data set” (2004):
#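 How tested: cells in 96-well plates exposed to compound for 48 hours at five concentrations. Abbreviation: GI50, concentration required for 50% inhibition of growth.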 Calls of active or inactive are those of the source. Cut-off read from the data, not from the text of the source: active = GI50 up to about 1.1 µM and inactive = higher.
# Tests used:
# Assay in all cases: NCI anticancer screen, dose series, 48 h
# [1] = test system: M14
# [2] = test system: UACC-62
# [3] = test system: NCI-H23
# [4] = test system: A549
# [5] = test system: MDA-MB-435
# [6] = test system: HCT-116
# [7] = test system: MDA-N
# [8] = test system: RPMI-8226
# [9] = test system: HOP-62
# [10] = test system: SF-539
# [11] = test system: BT-549
# [12] = test system: NCI/ADR-RES
# [13] = test system: SK-MEL-2
# [14] = test system: SNB-19
# [15] = test system: OVCAR-4
# [16] = test system: OVCAR-5
# [17] = test system: T47D
# [18] = test system: UACC-257
# [19] = test system: U-251
# [20] = test system: NCI-H460
# [21] = test system: HCC 2998
# [22] = test system: DU-145
# [23] = test system: IGROV-1
# [24] = test system: ACHN
# [25] = test system: MOLT-4
# [26] = test system: TK-10
# [27] = test system: COLO 205
# [28] = test system: HCT-15
# [29] = test system: CCRF-CEM
# [30] = test system: NCI-H522
# [31] = test system: SK-MEL-28
# [32] = test system: SW-620
# [33] = test system: MDA-MB-231
# [34] = test system: RXF 393
# [35] = test system: OVCAR-8
# [36] = test system: K562
# [37] = test system: NCI-H226
# [38] = test system: SF-295
# [39] = test system: HT-29
# [40] = test system: SR
# [41] = test system: OVCAR-3
# [42] = test system: SN12C
# [43] = test system: CAKI-1
# [44] = test system: SK-OV-3
# [45] = test system: SF-268
# [46] = test system: KM12
# [47] = test system: HOP-92
# [48] = test system: UO-31
# [49] = test system: Malme-3M
# [50] = test system: SNB-75
# [51] = test system: 786-0
# [52] = test system: PC-3
# [53] = test system: SK-MEL-5
# [54] = test system: Hs-578T
# [55] = test system: HL-60
# [56] = test system: LOX IMVI
# [57] = test system: EKVX
# [58] = test system: A498
compound,measurement,setting,value
COc1ccccc1NC(=S)NNC(=O)c1cc(-c2ccccc2)nc2ccccc12,GI50,[1],11.9 µM (inactive)
same,GI50,[2],5.86 µM (inactive)
same,GI50,[3],13.9 µM (inactive)
same,GI50,[4],8.55 µM (inactive)
same,GI50,[5],3.18 µM (inactive)
same,GI50,[6],6.22 µM (inactive)
same,GI50,[7],3.35 µM (inactive)
same,GI50,[8],6.97 µM (inactive)
same,GI50,[9],11.7 µM (inactive)
same,GI50,[10],11.5 µM (inactive)
same,GI50,[11],8.26 µM (inactive)
same,GI50,[12],12.8 µM (inactive)
same,GI50,[13],10.4 µM (inactive)
same,GI50,[14],24.5 µM (inactive)
same,GI50,[15],14.7 µM (inactive)
same,GI50,[16],16.4 µM (inactive)
same,GI50,[17],15.9 µM (inactive)
same,GI50,[18],18.2 µM (inactive)
same,GI50,[19],9.59 µM (inactive)
same,GI50,[20],13.2 µM (inactive)
same,GI50,[21],13.6 µM (inactive)
same,GI50,[22],12.4 µM (inactive)
same,GI50,[23],13.9 µM (inactive)
same,GI50,[24],17.7 µM (inactive)
same,GI50,[25],4.3 µM (inactive)
same,GI50,[26],26.5 µM (inactive)
same,GI50,[27],11.8 µM (inactive)
same,GI50,[28],4.11 µM
same,GI50,[29],2.08 µM (inactive)
same,GI50,[30],12.9 µM (inactive)
same,GI50,[31],10.4 µM (inactive)
same,GI50,[32],7.76 µM (inactive)
same,GI50,[33],10 µM (inactive)
same,GI50,[34],3.27 µM (inactive)
same,GI50,[35],18 µM (inactive)
same,GI50,[36],6.97 µM (inactive)
same,GI50,[37],17.3 µM (inactive)
same,GI50,[38],4.38 µM (inactive)
same,GI50,[39],21.9 µM (inactive)
same,GI50,[40],1.74 µM (inactive)
same,GI50,[41],4.45 µM (inactive)
same,GI50,[42],14.7 µM (inactive)
same,GI50,[43],10.7 µM (inactive)
same,GI50,[44],16.9 µM (inactive)
same,GI50,[45],17.5 µM (inactive)
same,GI50,[46],7.01 µM (inactive)
same,GI50,[47],12.8 µM (inactive)
same,GI50,[48],11 µM (inactive)
same,GI50,[49],4.69 µM (inactive)
same,GI50,[50],18.7 µM (inactive)
same,GI50,[51],13.2 µM (inactive)
same,GI50,[52],10.3 µM (inactive)
same,GI50,[53],5.81 µM (inactive)
same,GI50,[54],16.6 µM (inactive)
CCc1nnc2sc(-c3ccc(-c4ccc(Cl)cc4Cl)o3)nn12,GI50,[1],> 100 µM (inactive)
same,GI50,[3],76.4 µM (inactive)
same,GI50,[4],73.5 µM (inactive)
same,GI50,[55],27 µM (inactive)
same,GI50,[5],> 100 µM (inactive)
same,GI50,[6],62.5 µM (inactive)
same,GI50,[7],66.5 µM (inactive)
same,GI50,[8],29.2 µM (inactive)
same,GI50,[56],74.1 µM (inactive)
same,GI50,[9],61.9 µM (inactive)
same,GI50,[11],50 µM (inactive)
same,GI50,[12],50.2 µM (inactive)
same,GI50,[13],58.7 µM (inactive)
same,GI50,[57],54.8 µM (inactive)
same,GI50,[14],> 100 µM (inactive)
same,GI50,[15],84.7 µM (inactive)
same,GI50,[16],> 100 µM (inactive)
same,GI50,[17],18 µM (inactive)
same,GI50,[18],43.9 µM (inactive)
same,GI50,[19],37.3 µM (inactive)
same,GI50,[20],67 µM (inactive)
same,GI50,[22],72.3 µM (inactive)
same,GI50,[23],> 100 µM (inactive)
same,GI50,[24],82 µM (inactive)
same,GI50,[25],44.1 µM (inactive)
same,GI50,[26],43.7 µM (inactive)
same,GI50,[27],23.1 µM (inactive)
same,GI50,[28],61.7 µM
same,GI50,[29],37.3 µM (inactive)
same,GI50,[30],52.4 µM (inactive)
same,GI50,[31],> 100 µM (inactive)
same,GI50,[32],> 100 µM (inactive)
same,GI50,[33],35 µM (inactive)
same,GI50,[34],3.79 µM (inactive)
same,GI50,[35],71 µM (inactive)
same,GI50,[36],47.2 µM (inactive)
same,GI50,[37],50.6 µM (inactive)
same,GI50,[38],43.1 µM (inactive)
same,GI50,[39],96.2 µM (inactive)
same,GI50,[40],40.3 µM (inactive)
same,GI50,[58],30.3 µM (inactive)
same,GI50,[41],40.6 µM (inactive)
same,GI50,[42],60.7 µM (inactive)
same,GI50,[43],96.6 µM (inactive)
same,GI50,[44],43.1 µM (inactive)
same,GI50,[45],61.2 µM (inactive)
same,GI50,[46],> 100 µM (inactive)
same,GI50,[47],21.4 µM (inactive)
same,GI50,[48],67.8 µM (inactive)
same,GI50,[49],> 100 µM (inactive)
same,GI50,[50],21.3 µM (inactive)
same,GI50,[51],32.9 µM (inactive)
same,GI50,[52],30.1 µM (inactive)
same,GI50,[53],34.2 µM (inactive)
same,GI50,[54],74.8 µM (inactive)
